Assay [1] deals with 2C T cells. The experiment in a line: Influence of temperature and CD8 on cell-bead complex formation, flow cytofluorometry. The format is cell-based, mouse. Particulars: for CD8 dependence of cell capture: purified 2C T cells versus CD8^− 2C T cells, room temperature, 3 hours. The procedure: We used flow cytofluorometry analysis to quantitate the influence of various parameters on cell-bead complex formation. Attachment of cells to beads was time dependent. […] Kinetics of adsorption were remarkably parallel for various peptide-MHC complexes. At 4° C., only a small percentage of cells was captured on beads, even after prolonged incubation. […] ([…], 1996).

Assay [2] concerns 2C T cells. The experiment in a line: Cell-bead complex formation, flow cytofluorometry, side scatter versus forward scatter dot plots. The format is cell-based, mouse. Particulars: 4 hours of incubation.
The subject of assay [3] is 2C T cells. The experiment in a line: Recovery of 2C T cells mixed with CD8^+ T cells from naive C57BL/6 mouse by adsorption on MHC class I-coated magnetic beads. Particulars: for % 2C T cell after enrichment: 0.03% 2C T cells before enrichment. The format is cell-based. The procedure: T cell precursor frequencies in a naive animal are typically low. Magnetic beads have been found suitable in other systems to enrich low frequency cell populations (Sawada et al., 1990; Kato and Radbruch, 1993). To assess whether MHC class I-coated magnetic beads could be used for T cell precursor enrichment, we mixed fluorescein-labeled 2C T cells with CD8^+ T cells purified from naive C57BL/6 mice. After incubation with MHC-coated magnetic beads in the presence of peptide, adsorbed cells were eluted and counted, and the percentage of 2C T cells was determined by flow cytofluorometry. In the experiment shown in FIG. 5, 2C T cells were undetectable at the initial frequency of 0.03%. Following adsorption using K^bm3-coated beads and dEV-8 peptide, a definite peak of green fluorescence was observed, displaying the same intensity as the original fluorescein-stained 2C T cell population. This peak represented 65.1% of the eluted cells. No peak was observed when a control peptide was used instead of dEV-8. […] In all cases, the non-fluorescent cells in the eluted population represented only a minor fraction of the initial cell population (˜0.2%).

Assay [4] addresses 2C T cell receptor (2C TCR) on naive T cells purified from 2C TCR transgenic mice (mouse). As to the kind of experiment: 2C T cells with MHC-coated magnetic beads, 4 h, flow cytofluorometry, forward versus side scatter.
Assay [5] has the same target. As to the kind of experiment: 2C T cells mixed with CD8+ T cells of naive B6 mouse (0.03%), adsorption on MHC class I-coated magnetic beads, 2 experiments.
Assay [6] has as its system 2C T cells. As to the kind of experiment: Capture of 2C T cells on MHC-coated magnetic beads, microscopic examination. Particulars: readout not stated. The format is cell-based, mouse.
In a further assay the test system is 2C TCR. To be noted: association constant, cited from earlier work; for affinity of peptide-MHC complex for the 2C TCR: recently determined; for 2C TCR affinity for L^d-peptide: Sykulev et al, 1994 a, b.
For a further assay, the target named is T1, L^d (Mus musculus, UniProt P01897).
T1 sequence (P01897 25-298 limits assumed): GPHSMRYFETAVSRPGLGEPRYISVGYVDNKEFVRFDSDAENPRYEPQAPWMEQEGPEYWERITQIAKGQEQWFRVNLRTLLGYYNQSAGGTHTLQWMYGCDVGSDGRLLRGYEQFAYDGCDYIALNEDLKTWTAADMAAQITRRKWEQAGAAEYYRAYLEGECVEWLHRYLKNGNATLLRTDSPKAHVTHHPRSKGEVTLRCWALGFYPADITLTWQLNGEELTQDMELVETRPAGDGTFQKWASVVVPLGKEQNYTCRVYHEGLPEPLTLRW
T1 sequence (P01887 21-119 partner): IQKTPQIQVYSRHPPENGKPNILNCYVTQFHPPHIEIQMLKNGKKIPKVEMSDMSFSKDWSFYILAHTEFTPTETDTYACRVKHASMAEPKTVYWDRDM
To be noted: association constant; cited from earlier work.

The target in assay [7] is 2C T cell receptor (2C TCR) on naive T cells purified from 2C TCR transgenic mice (mouse). The experiment in a line: fluorescein-labeled 2C T cells with phycoerythrin-labeled L^d-coated beads, flow cytofluorometry, green versus red dot plots; laid by the filing to non-specific adsorption of cell debris.
Assay [8] shares this target. The experiment in a line: 2C T cells with MHC-coated magnetic beads, flow cytofluorometry, forward versus side scatter.
Assay [9] has the same target. As to the kind of experiment: fluorescein-labeled 2C T cells with phycoerythrin-labeled L^d-coated beads, flow cytofluorometry, green versus red dot plots.
For assay [10] the target is unchanged. The experiment in a line: 2C T cells mixed with CD8+ T cells of naive B6 mouse (0.03%), adsorption on MHC class I-coated magnetic beads, 3 experiments.
The target is the same in assay [11]. The experiment in a line: 2C T cells with MHC-coated magnetic beads, flow cytofluorometry, temperature dependence.
The subject of the next assay is EL4 cells. The format is cell-based, mouse.
In assay [12] the test system is 2C T cells. The experiment in a line: Cell-bead complex formation, flow cytofluorometry, green versus red fluorescence dot plots. The format is cell-based, mouse. To be noted: L^d-coated beads, 20 μM peptide.

Like-named read-outs stand apart in the source and are kept apart here.

Turning to EQYKFYSV [dEV-8, ID; NO.: 5], in the assay with 2C T cells [1], the “CD8 dependence of cell capture” value is recorded as “most CD8-dependent”. In addition, the “percentage of cells adsorbed to beads (CO/CO+CE)” value (shortened to “percentage of cells adsorbed”) with 2C T cells [2] (K^bm3-coated beads) worked out at 63.8%. In addition, in the assay with 2C T cells [3] (K^bm3-coated beads), the “2C T cell enrichment” value is reported as 1697 ± 473 fold and the “% 2C T cell after enrichment” value is on record as 50.9 ± 14.2%.
In turn, “K^b-SIYR complex on avidin-coated magnetic beads (from UniProt P01887 21-119; P01901 22-369) (peptide-MHC)” gave a % of cells adsorbed to beads in assay [4] of 75.7%. In assay [5], this molecule showed a 2C T cell recovery of 56.8%.
On to “K^b-SIYR: complex of K^b with peptide SIYR”, for which the “capture of 2C T cells observed or not” value with 2C T cells [6] is reported as “consistently observed capture”. The “affinity of peptide-MHC complex for the 2C TCR” value (“affinity of peptide-MHC complex” below) in the assay with 2C TCR was 31000 M⁻¹.
With “K^b-dEV-8: complex of K^b with peptide dEV-8”, the “capture of 2C T cells observed or not” value with 2C T cells [6] was “not”. Further, the “affinity of peptide-MHC complex” value in the assay on 2C TCR was 12000 M⁻¹.
Molecule “K^bm3-dEV-8 complex on avidin-coated magnetic beads (from UniProt P01887 21-119) (peptide-MHC)” came in with a % of cells adsorbed to beads in assay [4] of 63.8%. Further, the 2C T cell recovery in assay [5] was determined as 47.7%.
In the case of LSPFPFDL [p2Ca], the “CD8 dependence of cell capture” value in the assay with 2C T cells [1] is “most CD8-dependent”. At L^d, the “Peptide affinity for L^d” value was 4e+06 M⁻¹. For the same molecule, the “percentage of cells adsorbed” value with 2C T cells [2] (L^d-coated beads) is 78.9%. The “2C TCR affinity for L^d-peptide” value in the assay on 2C TCR is 2e+06 M⁻¹.
In turn, “L^d-LCMV complex on avidin-coated magnetic beads (from UniProt P01887 21-119; P01897 25-362) (peptide-MHC)” displayed a % red and green colored events in [7] of 2.2%. Also, the % of events in the complex region in [8] worked out at 2.6%.
As to “L^d-QL9 complex on avidin-coated magnetic beads (from UniProt P01887 21-119; P01897 25-362) (peptide-MHC)”, in [4], the % of cells adsorbed to beads was 91%. The same molecule displayed a % of cells complexed to beads in [9] above 85%. Also, the 2C T cell recovery in assay [10] was 90%.
On to “L^d-QL9: complex of MHC class I molecule L^d with peptide QL9”, for which the “CD8 dependence of cell capture” value in the assay with 2C T cells [1] was “largely CD8 independent”.
The molecule “L^d-SL9 complex on avidin-coated magnetic beads (from UniProt P01887 21-119; P01897 25-362) (peptide-MHC)” had a % of cells complexed to beads in [9] above 85%.
On to “L^d-SL9: complex of L^d with peptide SL9”, for which the “affinity of peptide-MHC complex” value with 2C TCR is 14000 M⁻¹.
In [4], “L^d-p2Ca complex on avidin-coated magnetic beads (from UniProt P01887 21-119; P01897 25-362) (peptide-MHC)” had a % of cells adsorbed to beads of 78.9%. This molecule displayed a % of cells complexed to beads in [9] above 85%. Besides, the attachment level at 37° C. against the value at room temperature in assay [11] came out at 25%.
As for “L^d-p2Ca-A3: complex of L^d with peptide p2Ca-A3”, the “capture of 2C T cells observed or not” value with 2C T cells [6] is recorded as “not”. The “affinity of peptide-MHC complex” value in the assay with 2C TCR is 20000 M⁻¹.
“L^d-p2Ca: complex of L^d with peptide p2Ca”: in the assay with 2C T cells [1] (37° C. versus room temperature), the “attachment levels at 37° C. relative to values measured at room temperature” value is recorded as “about 25%”. The “CD8 dependence of cell capture” value in the assay on 2C T cells [1] is reported as “exhibited CD8 dependence”.
For the molecule QLSPFPFDL [QL9], the “CD8 dependence of cell capture” value in the assay with 2C T cells [1] is listed as “CD8 independent”. For the same molecule, in the assay with L^d, the “Peptide affinity for L^d” value is 2e+08 M⁻¹. Also, the “percentage of cells adsorbed” value in the assay with 2C T cells [2] (L^d-coated beads) is reported as 91.0%. In addition, in the assay on 2C T cells [3] (L^d-coated beads), the “2C T cell enrichment” value turned out to be 828 ± 230 fold and the “% 2C T cell after enrichment” value is on record as 24.8 ± 6.9%. For the same molecule, in the assay on 2C TCR, the “2C TCR affinity for L^d-peptide” value is on record as 10^7 M^−1.
With RGYVYQGL [VSV-8], in the assay with EL4 cells, the “CTL activity of cells captured and cultured with the same peptide” value was “displayed a CTL activity specific for VSV-8”; the “CTL precursors for the other peptide in captured cells” value was “no detectable anti-OVA-8 CTL precursors”.
Take RPQASGVYM [LCMV]: in the assay with 2C T cells [12], the “percentage of cells complexed to beads (RG/G+RG)” value stood at 2.2%.
Regarding SIINFEKL [OVA-8, ID; NO.: 9], the “CTL activity of cells captured and cultured with the same peptide” value in the assay with EL4 cells (K^b-coated beads, naive C57BL/6 CD8^+ T cells, tested at day 18, peptides 1 μM) is given as “displayed a CTL activity specific for OVA-8 peptide”. The “CTL precursors for the other peptide in captured cells” value with EL4 cells (reverse combination: captured with one peptide, activated in culture with the other) was “no detectable anti-VSV-8 CTL precursors”.
Turning to SIYRYYGL, the “CD8 dependence of cell capture” value with 2C T cells [1] is listed as “CD8 independent”. Moreover, the “percentage of cells adsorbed” value in the assay with 2C T cells [2] (K^b-coated beads) was determined as 75.7%. Besides, in the assay with 2C T cells [3] (K^b-coated beads), the “2C T cell enrichment” value is reported as 1588 ± 71 fold and the “% 2C T cell after enrichment” value is on record as 47.6 ± 2.1%.
For SPFPFDLLL [SL9, ID; NO.: 3], the “Peptide affinity for L^d” value with L^d is 4e+07 M⁻¹. Besides, the “2C TCR affinity for L^d-peptide” value in the assay on 2C TCR is 14000 M⁻¹.
For the molecule YPHFMPTNL [MCMV, ID; NO.: 8], the “Peptide affinity for L^d” value with L^d was 2e+09 M⁻¹. The “2C TCR affinity for L^d-peptide” value in the assay on 2C TCR is recorded as <10^3 M^−1.

B1: K^b-E1: non-2C reactive complex of K^b with peptide E1 (protein)
MHC heavy: GPHSLRYFVTAVSRPGLGEPRYMEVGYVDDTEFVRFDSDAENPRYEPRARWMEQEGPEYWERETQKAKGNEQSFRVDLRTLLGYYNQSKGGSHTIQVISGCEVGSDGRLLRGYQQYAYDGCDYIALNEDLKTWTAADMAALITKHKWEQAGEAERLRAYLEGTCVEWLRRYLKNGNATLLRTDSPKAHVTHHSRPEDKVTLRCWALGFYPADITLTWQLNGEELIQDMELVETRPAGDGTFQKWASVVVPLGKEQYYTCHVYHQGLPEPLTLRWEPPPSTVSNMATVAVLVVLGAAIVTGAVVAFVMKMRRRNTGGKGGDYALAPGSQTSDLSLPDCKVMVHDPHSLA
b2m: IQKTPQIQVYSRHPPENGKPNILNCYVTQFHPPHIEIQMLKNGKKIPKVEMSDMSFSKDWSFYILAHTEFTPTETDTYACRVKHASMAEPKTVYWDRDM
peptide: EIINFEKL
Turning to B1, in the assay with 2C T cells [2] (K^b-coated beads), the “percentage of cells adsorbed” value is reported as 0.2%.

Values taken from patent publication US7125964B2, “Purification of antigen-specific T cells” (Ortho-McNeil Pharmaceutical, Inc., priority 1996, dated 2006).
